Columns and labels:
Assay type in all cases: cell-based
BTK (TMD-8 cells) [1] = biological target: T1, BTK (TMD-8 cells) (Homo sapiens (Human), UniProt Q06187); assay: BTK degradation HTRF assay in TMD-8 cells (Test Example 1); conditions: Table 3; for DC50: 6 h treatment, BTK degradation; for Dmax: TMD8, 6 h treatment, maximum percentage of BTK degradation
Description: 1c). […] TMD-8 cells are treated with compounds diluted in 0.2% DMSO, dilution is done according to the following protocol: (1) make 500× stock solution in DMSO from 1 mM by 6-fold dilution, total 8 doses were included; (2) make 2× solution in cell culture medium by transferring 0.5 μl 500× stock solution into 125 μl medium; (3) 15 μl of 2× solution is added to cells and incubate for 6 h.
(§1) After 6 h treatment, add 10 μl 4xlysis buffer to each well; seal the plate and incubate 30 min at room temperature on a plate shaker; Once the cells are lysed, 16 μL of cell lysate are transferred to a PE 384-well HTRF detection plate; 4 μL of pre-mixed HTRF antibodies are added to each well; Cover the plate with a plate sealer, spin 1000 rpm for 1 min, Incubate overnight at room temperature; Read on BMG PheraStar with HTRF protocol (337 nm-665 nm-620 nm).
(§2) The IC50 (DC50) value of a compound can be obtained by fitting the following equation
(§3) Y=Bottom+(TOP−Bottom)/(1+((IC50/X)^hillslope))
(§4) Wherein, X and Y are known values, and IC50, Hillslope, Top and Bottom are the parameters obtained by fitting with software. Y is the inhibition percentage (calculated from the equation), X is the concentration of the compound; IC50 is the concentration of the compound when the 50% inhibition is reached. The smaller the IC50 value is, the stronger the inhibitory ability of the compound is. Vice versa, the higher the IC50 value is, the weaker the ability the inhibitory ability of the compound is; Hillslope represents the slope of the fitted curve, generally around 1*; Bottom represents the minimum value of the curve obtained by data fitting, which is generally 0%±20%; Top represents the maximum value of the curve obtained by data fitting, which is generally 100%±20%. The experimental data were fitted by calculating and analyzing with Dotmatics data analysis software.

BTK (TMD-8 cells) [2] = biological target: T1, BTK (TMD-8 cells); assay: BTK degradation HTRF assay in TMD-8 cells (Test Example 3); conditions: 6 h treatment, Table 5
Description: TMD-8 cells were treated with compounds diluted in 0.2% DMSO, dilution was done according to the following protocol: (1) making 500× stock solution in DMSO from 1 mM by 6-fold dilution, total 8 doses were included; (2) making 2× solution in cell culture medium by transferring 0.5 μl 500× stock solution into […]; (3) adding 15 μl of 2× solution to cells for incubation of 6 h.
After 6 h treatment, 10 μl 4xlysis buffer was added to each well; the plate was sealed and incubated for 30 min at room temperature on a plate shaker; Once the cells was lysed, 16 μL of cell lysate were transferred to a PE 384-well HTRF detection plate; 4 μL of pre-mixed HTRF antibodies were added to each well; the plate was covered with a plate sealer, and then spinned at 1000 rpm for 1 min, then incubated overnight at room temperature; the results were read on BMG PheraStar with HTRF protocol (337 nm-665 nm-620 nm).
as §2, §3
as §4, with “wherein,” for “Wherein,”

HEK-293 cells = assay: HEK-293 cytotoxicity detection (CellTiter-Glo); conditions: Homo sapiens, HEK293, 72 h incubation
Description: HEK-293 cells were treated with compounds diluted in 0.2% DMSO, dilution was done according to the following protocol: (1) making 500× stock solution in DMSO from 5 mM by 4-fold dilution, total 8 doses were included; (2) making 2× solution in cell culture medium by transferring 0.5ul 500× stock solution into 125ul medium; (3) adding 50ul of 2× solution to cells for incubation of 72 h.
25 μl of the CellTiter-Glo®Reagent [(Promega) - Cat No. G7572] was added to each well in the 96-well plate. The contents were mixed for 2 minutes on an orbital shaker to induce cell lysis. The plate was then allowed to incubate at room temperature for 10 minutes to stabilize luminescent signal. Luminescence was recorded on BMG PheraStar with luminescence protocol.
The IC50 value of a compound can be obtained by fitting the following equation
as §3, §4

IRAKM (THP-1 cells) = IRAKM (THP-1 cells) (Homo sapiens (Human), UniProt Q9Y616); assay: IRAKM degradation HTRF assay in THP-1 cells; conditions: 6 h treatment
Description: THP-1 cells are treated with compounds diluted in 0.2% DMSO, dilution is done according to the following protocol: (1) make 500× stock solution in DMSO from 5 mM by 5-fold dilution, total 8 doses were included; (2) make 2× solution in cell culture medium by transferring 0.5 μl 500× stock solution into 125 μl medium; (3) 15 μl of 2× solution is added to cells and incubate for 6 h.
as §1, with “1 hour” for “30 min”, “plate(for triple mutant cells, the lysate were diluted by the qual volume 1xlysis buffer before transfer);” for “plate;”
as §2, §3
Wherein, X and Y are known values, and IC50, Hillslope, Top and Bottom are the parameters obtained by fitting with software. Y is the inhibition percentage (calculated from the equation), X is the concentration of the compound; IC50 is the concentration of the compound when the 50% inhibition is reached. […]

T1 sequence (Q06187 whole entry): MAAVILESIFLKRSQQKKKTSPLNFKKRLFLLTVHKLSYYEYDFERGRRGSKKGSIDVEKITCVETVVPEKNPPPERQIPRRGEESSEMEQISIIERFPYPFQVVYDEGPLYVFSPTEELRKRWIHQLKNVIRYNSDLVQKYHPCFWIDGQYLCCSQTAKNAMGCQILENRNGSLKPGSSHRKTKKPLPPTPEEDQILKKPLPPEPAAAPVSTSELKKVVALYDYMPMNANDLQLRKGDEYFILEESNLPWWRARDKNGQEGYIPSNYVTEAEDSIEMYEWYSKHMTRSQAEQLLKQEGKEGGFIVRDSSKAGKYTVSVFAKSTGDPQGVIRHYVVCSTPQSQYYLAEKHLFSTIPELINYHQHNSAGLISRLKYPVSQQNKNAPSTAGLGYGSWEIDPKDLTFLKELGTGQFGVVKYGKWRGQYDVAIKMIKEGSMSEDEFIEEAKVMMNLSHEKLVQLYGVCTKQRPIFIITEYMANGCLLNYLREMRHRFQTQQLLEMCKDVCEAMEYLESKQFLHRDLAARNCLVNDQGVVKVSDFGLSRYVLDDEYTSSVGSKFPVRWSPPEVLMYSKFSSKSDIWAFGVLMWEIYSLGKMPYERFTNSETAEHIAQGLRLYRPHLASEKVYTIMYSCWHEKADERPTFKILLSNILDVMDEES
Chain of IRAKM (THP-1 cells) (Q9Y616 whole entry): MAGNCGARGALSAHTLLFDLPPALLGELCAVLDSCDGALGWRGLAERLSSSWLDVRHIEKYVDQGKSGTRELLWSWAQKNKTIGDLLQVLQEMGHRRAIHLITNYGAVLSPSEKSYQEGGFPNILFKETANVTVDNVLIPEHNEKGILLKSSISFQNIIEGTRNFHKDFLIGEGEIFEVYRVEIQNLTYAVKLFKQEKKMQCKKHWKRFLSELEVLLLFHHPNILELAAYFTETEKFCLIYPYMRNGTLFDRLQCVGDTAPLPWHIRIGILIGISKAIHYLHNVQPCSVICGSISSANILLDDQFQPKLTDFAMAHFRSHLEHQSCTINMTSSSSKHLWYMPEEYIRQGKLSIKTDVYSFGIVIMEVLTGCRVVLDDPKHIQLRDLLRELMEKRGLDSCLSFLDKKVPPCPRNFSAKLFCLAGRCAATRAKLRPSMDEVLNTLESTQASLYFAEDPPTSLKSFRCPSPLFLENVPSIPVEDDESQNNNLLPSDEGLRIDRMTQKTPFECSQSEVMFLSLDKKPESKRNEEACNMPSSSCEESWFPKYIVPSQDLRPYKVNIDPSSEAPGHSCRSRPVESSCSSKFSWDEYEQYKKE

Row | SMILES | DC50 (BTK (TMD-8 cells) [1]) | Dmax (BTK (TMD-8 cells) [1]) | DC50 (BTK (TMD-8 cells) [2]) | DC50 (IRAKM (THP-1 cells)) | IC50 (HEK-293 cells)
1 | Cc1cc(-c2n[nH]c3ncc(-c4ccc(C5CCN(CCc6ccc(C7CCC(=O)NC7=O)cc6)CC5)cc4)cc23)ccc1CNC(=O)c1nc(C(C)(C)C)no1 (stereo not drawn) [Example 31, 3-(tert-butyl)-N-(4-(5-(4-(1-(4-(2,6-dioxopiperidin-3-yl)phenethyl)piperidin-4-yl)phenyl)-1H-pyrazolo[3,4-b]pyridin-3-yl)-2-methylbenzyl)-1,2,4-oxadiazole-5-carboxamide] | > 2000 nM | 12% |  |  | 
2 | Cc1cc(-c2n[nH]c3ncc(-c4ccc(C5CCN(CCc6cc(F)c([C@H]7CCC(=O)NC7=O)c(F)c6)CC5)cc4)cc23)ccc1CNC(=O)c1nc(C(C)(C)C)no1 [Example 32, (R)-3-(tert-butyl)-N-(4-(5-(4-(1-(4-(2,6-dioxopiperidin-3-yl)-3,5-difluorophenethyl)piperidin-4-yl)phenyl)-1H-pyrazolo[3,4-b]pyridin-3-yl)-2-methylbenzyl)-1,2,4-oxadiazole-5-carboxamide] | 5.33 nM | 97.4% |  |  | 
3 | Cc1cccc(NC(=O)c2ccc(-c3nn4c(c3C(N)=O)Nc3ccc(N5CCN(CCc6cc(F)c([C@H]7CCC(=O)NC7=O)c(F)c6)CC5)cc3CC4)c(F)c2C)n1 [Example B35, (R)-7-(4-(4-(2,6-dioxopiperidin-3-yl)-3,5-difluorophenethyl)piperazin-1-yl)-2-(2-fluoro-3-methyl-4-((6-methylpyridin-2-yl)carbamoyl)phenyl)-9,10-dihydro-4H-benzo[d]pyrazolo[1,5-a][1,3]diazepine-3-carboxamide] |  |  | 2.32 nM |  | > 10000 nM
4 | Cc1c(C(=O)Nc2cn(C)cn2)ccc(-c2nn3c(c2C(N)=O)Nc2ccc(N4CCN(CCc5cc(F)c([C@H]6CCC(=O)NC6=O)c(F)c5)CC4)cc2CC3)c1F [Example B37, (R)-7-(4-(4-(2,6-dioxopiperidin-3-yl)-3,5-difluorophenethyl)piperazin-1-yl)-2-(2-fluoro-3-methyl-4-((1-methyl-1H-imidazol-4-yl)carbamoyl)phenyl)-9,10-dihydro-4H-benzo[d]pyrazolo[1,5-a][1,3]diazepine-3-carboxamide] |  |  | 0.414 nM |  | > 10000 nM
5 | Cc1c(C(=O)Nc2cscn2)ccc(-c2nn3c(c2C(N)=O)Nc2ccc(N4CCN(CCc5cc(F)c([C@H]6CCC(=O)NC6=O)c(F)c5)CC4)cc2CC3)c1F [Example B38, (R)-7-(4-(4-(2,6-dioxopiperidin-3-yl)-3,5-difluorophenethyl)piperazin-1-yl)-2-(2-fluoro-3-methyl-4-(thiazol-4-ylcarbamoyl)phenyl)-9,10-dihydro-4H-benzo[d]pyrazolo[1,5-a][1,3]diazepine-3-carboxamide] |  |  | 1.7 nM |  | 26.8 nM

The next lines start with results.

Row | DC50 (BTK (TMD-8 cells) [1]) | Dmax (BTK (TMD-8 cells) [1]) | DC50 (BTK (TMD-8 cells) [2]) | DC50 (IRAKM (THP-1 cells)) | SMILES | IC50 (HEK-293 cells)
6 |  |  | 242 nM |  | Cc1cc(-c2cc(Nc3cccc(N4CCN(CC5CCN(c6ccc(N7CCC(=O)NC7=O)cc6)CC5)CC4)c3)ncn2)c(F)cc1[C@@H](C)NC(=O)c1nc(C(C)(C)C)no1 [Example C39, (R)-3-(tert-butyl)-N-(1-(4-(6-((3-(4-((1-(4-(2,4-dioxotetrahydropyrimidin-1(21)-yl)phenyl)piperidin-4-yl)methyl)piperazin-1-yl)phenyl)amino)pyrimidin-4-yl)-5-fluoro-2-methylphenyl)ethyl)-1,2,4-oxadiazole-5-carboxamide] | > 10000 nM
7 |  |  | 2.73 nM |  | Cc1cc(-c2cc(Nc3ccc(N4CCN(CCc5cc(F)c([C@H]6CCC(=O)NC6=O)c(F)c5)CC4)cn3)ncn2)ccc1[C@@H](C)NC(=O)c1nc(C(C)(C)C)no1 [Example C41, 3-(tert-butyl)-N—((R)-1-(4-(6-((5-(4-(4-((R)-2,6-dioxopiperidin-3-yl)-3,5-difluorophenethyl)piperazin-1-yl)pyridin-2-yl)amino)pyrimidin-4-yl)-2-methylphenyl)ethyl)-1,2,4-oxadiazole-5-carboxamide] | > 10000 nM
8 |  |  |  | 2.8 nM | CCc1nc(C(N)=O)c(Nc2ccc(N3CCC(N4CCN(CCc5cc(F)c(C6CCC(=O)NC6=O)c(F)c5)CC4)CC3)c(OC)c2)nc1NC1CCOCC1 (stereo not drawn) [Example D42, 3-((4-(4-(4-(4-(2,6-dioxopiperidin-3-yl)-3,5-difluorophenethyl)piperazin-1-yl)piperidin-1-yl)-3-methoxyphenyl)amino)-6-ethyl-5-((tetrahydro-2H-pyran-4-yl)amino)pyrazine-2-carboxamide] | 

From US20240207267A1, “(R)-Glutarimide CRBN Ligands and Methods of Use” (BeiGene Switzerland GmbH, priority 2021, published 2024)
